Entries after “also recorded” stand apart in the source; their conditions may differ. Like-named read-outs stand apart in the source and are kept apart here.
Target: recombinant guinea pig liver TGase (Cavia cutleri (Guinea pig), UniProt P08587)
Assay: biochemical
Format: biochemical
Experimental: ENZYME INHIBITION BY COMPOUNDS 14a-c, 14l, 15a, 15d-k, 15m-q, 30a, 30r, 30t, 37a and 38a: For enzymology studies of these compounds, recombinant guinea pig liver TGase was expressed in Escherichia coli and effectively purified (Gillet, S. M. F. G. et al J. N., Prot. Exp. & Purif. 2004, 33, 256).
The mode of inhibition was determined for the representative lead compound 14a through non-linear regression of initial rate data to the Michaelis-Menten equation (FIG. 1).
For the ensuing enzymatic tests, recombinant guinea pig liver TGase was expressed in E. Coli and effectively purified.
Kinetic runs were recorded on a Cary 100 BIO UV-Visible spectrophotometer at 405 nm and 25° C., in a buffer composed of 50 mM CaCl2, 50 μM EDTA and 0.1 M MOPS (pH 7.0). All aqueous solutions were prepared using de-ionized water purified from the Millipore BioCell system. […] Factor XIIIa activity was measured using a coupled-enzyme assay (Day, N.; Keillor, J. W. Anal. Biochem. 1999, 274, 141). Factor XIIIa, was added to a final concentration of 0.89 μg/mL to a pH 8.5 solution (0.1 M Tris-HCl, 5 mM CaCl2 and 10 mM DDT) of 0.5 mM β-NADH, 3.3 mM Na-acetyl-L-lysine methyl ester, 10 mM α-ketoglutaric acid sodium salt and 297 μg/mL glutamate dehydrogenase (GDH).

[1] = Table 1, substituent on the cinnamoyl aromatic group, read-out: IC50 (μM), class symbol
[2] = Table 1, value in brackets, read-out: IC50
[3] = Table 3, influence of the acylated moiety, read-out: IC50 (μM), class symbol
[4] = Table 3, value in brackets, read-out: IC50

recombinant guinea pig liver TGase, sequence (P08587 whole entry): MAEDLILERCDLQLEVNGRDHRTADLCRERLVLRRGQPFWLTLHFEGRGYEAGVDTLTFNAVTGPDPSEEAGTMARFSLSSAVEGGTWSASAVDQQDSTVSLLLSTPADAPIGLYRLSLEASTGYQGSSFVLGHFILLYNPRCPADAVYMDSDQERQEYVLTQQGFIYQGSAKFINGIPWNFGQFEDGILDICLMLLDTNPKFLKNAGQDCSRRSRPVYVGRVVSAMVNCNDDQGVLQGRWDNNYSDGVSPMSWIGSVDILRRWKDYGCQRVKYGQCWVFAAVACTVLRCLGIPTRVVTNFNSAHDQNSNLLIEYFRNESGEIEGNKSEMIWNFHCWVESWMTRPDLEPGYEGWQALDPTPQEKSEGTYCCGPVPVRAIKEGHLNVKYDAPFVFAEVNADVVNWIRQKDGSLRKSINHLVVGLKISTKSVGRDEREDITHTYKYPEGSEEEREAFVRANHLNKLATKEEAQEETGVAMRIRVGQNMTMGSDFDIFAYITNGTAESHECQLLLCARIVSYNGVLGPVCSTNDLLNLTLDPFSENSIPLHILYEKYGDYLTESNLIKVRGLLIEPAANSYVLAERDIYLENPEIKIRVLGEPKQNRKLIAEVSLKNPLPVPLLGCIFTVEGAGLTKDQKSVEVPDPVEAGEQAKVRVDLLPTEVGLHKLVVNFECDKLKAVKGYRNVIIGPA

Compound	IC50 [µM]	TGase inhibitory activity (in words)	IC50 (read-out: IC50) [µM]	IC50 [1] [µM]	IC50 [2] [µM]	other results
O=C(/C=C/c1ccc([N+](=O)[O-])cc1)c1cn(Cc2ccc([N+](=O)[O-])cc2)nn1 [Compound 4d, (E)-1-(1-(4-nitrobenzyl)-1H-1,2,3-triazol-4-yl)-3-(4-nitrophenyl)prop-2-en-1-one]	< 20	most efficient inhibitors in the series	2.1			mode of inhibition: competitive inhibition
COc1ccc(Cn2cc(C(=O)/C=C/c3ccc([N+](=O)[O-])cc3)nn2)cc1 [Compound 4n, (E)-1-(1-(4-methoxybenzyl)-1H-1,2,3-triazol-4-yl)-3-(4-nitrophenyl)prop-2-en-1-one]	< 20		14			
O=C(/C=C/c1ccc([N+](=O)[O-])cc1)c1cn(Cc2cccc([N+](=O)[O-])c2)nn1 [Compound 4g, (E)-1-(1-(3-nitrobenzyl)-1H-1,2,3-triazol-4-yl)-3-(4-nitrophenyl)prop-2-en-1-one]						reduction in potency (fold): 4-7 fold; IC50 (IC50 (μM), Table 6, value in brackets): 9.4 µM; IC50 (IC50 (μM), class symbol, Table 6, Huisgen [3+2] cycloaddition products): < 20 µM
CC(C)(C)OC(=O)Nc1ccc(C=CC(=O)n2nnc3ccccc32)cc1 [Compound 15n, p-(tert-Butoxycarbonylamino)cinnamoyl benzotriazolyl amide]				< 20	18	
Nc1ccc(/C=C/C(=O)c2cccnc2)cc1 [Compound 30r, (E)-3-(4-aminophenyl)-1-(pyridin-3-yl)prop-2-en-1-one]		as effective as the benzotriazolyl amide inhibitors		> 50	148	loss of potency (fold) (relative to p-nitro azachalcone 30a): 5 fold
O=C(C=Cc1ccc([N+](=O)[O-])cc1)On1nnc2ccccc21 [Compound 14a, p-Nitrocinnamoyl oxybenzotriazolyl amide]		Inhibitory activity was observed		20 to 50	43	IC50 [3]: 20 to 50 µM; mode of inhibition (versus acyl-donor substrate): competitive inhibition; also recorded: competitive inhibitor
O=C(/C=C/c1ccc([N+](=O)[O-])cc1)Nc1cccc2ccccc12 [Compound 23a, p-Nitrocinnamoyl naphtalenyl amide]						IC50 [3]: > 50 µM; IC50 [4]: > 200 µM
COc1ccccc1/C=C/C(=O)n1nnc2ccccc21 [Compound 15f, o-Methoxycinnamoyl benzotriazolyl amide]				> 50	> 100	
O=C(/C=C/c1ccc([N+](=O)[O-])cc1)c1cn(Cc2c(F)c(F)c(F)c(F)c2F)nn1 [Compound 4i]	> 50					
CCCCCCCCn1cc(C(=O)/C=C/c2ccc([N+](=O)[O-])cc2)nn1 [Compound 4b, (E)-3-(4-nitrophenyl)-1-(1-octyl-1H-1,2,3-triazol-4-yl)prop-2-en-1-one]	20 to 50		28.5			
O=C(OCc1ccc([N+](=O)[O-])cc1)n1nnc2ccccc21 [Compound 32a, p-Nitrobenzyloxycarbonylbenzotriazole]		significant loss of activity				IC50 (Table 2, influence of the cinnamoyl double bond, read-out: IC50 (μM), class symbol): > 50 µM; IC50 (Table 2, value in brackets or words, read-out: IC50): > 200 µM
Cc1cccc(/C=C/C(=O)n2nnc3ccccc32)c1 [Compound 15h, m-Methylcinnamoyl benzotriazolyl amide]				> 50	> 100	
CC(c1ccccc1)n1cc(C(=O)/C=C/c2ccc([N+](=O)[O-])cc2)nn1 (centres unmarked) [Compound 4k, (E)-3-(4-nitrophenyl)-1-(1-(1-phenylethyl)-1H-1,2,3-triazol-4-yl)prop-2-en-1-one]	< 20		17			loss in potency (fold): 4 fold
O=C(C=Cc1cccc(Cl)c1)On1nnc2ccccc21 [Compound 14l, m-Chlorocinnamoyl oxybenzotriazolyl amide]			41	20 to 50	41	
Cc1ccc(/C=C/C(=O)n2nnc3ccccc32)cc1 [Compound 15g, p-Methylcinnamoyl benzotriazolyl amide]				> 50	> 100	
COc1cccc(/C=C/C(=O)n2nnc3ccccc32)c1 [Compound 15e, m-Methoxycinnamoyl benzotriazolyl amide]				> 50	> 100	
COC(=O)c1ccc(/C=C/C(=O)n2nnc3ccccc32)cc1 [Compound 15q, p-(Methoxycarbonyl)cinnamoyl benzotriazolyl amide]				20 to 50	27	
O=C(C=Cc1ccc([N+](=O)[O-])cc1)N(Cc1ccccc1)Cc1ccccc1 [Compound 26a, p-Nitrocinnamoyl dibenzyl amide]			57			IC50 [3]: 20 to 50 µM; IC50 [4]: 57 µM
O=C(/C=C/c1ccc([N+](=O)[O-])cc1)c1cn(C(c2ccccc2)c2ccccc2)nn1 [Compound 4l, (E)-1-(1-benzhydryl-1H-1,2,3-triazol-4-yl)-3-(4-nitrophenyl)prop-2-en-1-one]	> 50	relatively poor activity	> 100			
O=C(C=Cc1cccc([N+](=O)[O-])c1)On1nnc2ccccc21 [Compound 14b, m-Nitrocinnamoyl oxybenzotriazolyl amide]				20 to 50	24	
O=C(C=Cc1ccc([N+](=O)[O-])cc1)On1nnc2cccnc21 [Compound 16a, p-Nitrocinnamoyl oxyazabenzotriazolyl amide]		Inhibitory activity was observed				IC50 [3]: 20 to 50 µM
O=C(/C=C/c1ccc([N+](=O)[O-])cc1)c1ccccc1 [Compound 31a, reference compound]		lack of activity				
O=C(/C=C/c1ccc([N+](=O)[O-])cc1)c1cn(C2CCCC2)nn1 [Compound 4c, (E)-1-(1-cyclopentyl-1H-1,2,3-triazol-4-yl)-3-(4-nitrophenyl)prop-2-en-1-one]	> 50	relatively poor activity	> 100			
O=C(/C=C/c1ccc([N+](=O)[O-])cc1)c1cn(CC2CCCCC2)nn1 [Compound 4f, (E)-1-(1-(cyclohexylmethyl)-1H-1,2,3-triazol-4-yl)-3-(4-nitrophenyl)prop-2-en-1-one]	< 20		11			loss in potency (fold): 2.5 fold
O=C(/C=C/c1ccccc1)n1nnc2ccccc21 [Compound 15j, Cinnamoyl benzotriazolyl amide]				> 50	> 100	
O=C(/C=C/c1ccc([N+](=O)[O-])cc1)c1c[nH]nn1 [Compound 4o, (E)-3-(4-nitrophenyl)-1-(1H-1,2,3-triazol-4-yl)prop-2-en-1-one]	20 to 50	relatively high IC50	45			
O=C(/C=C/c1ccc([N+](=O)[O-])cc1)Nc1ccccc1 [Compound 22a, p-Nitrocinnamoyl phenyl amide]						IC50 [3]: > 50 µM
O=C(/C=C/C=C/c1ccc([N+](=O)[O-])cc1)c1cccnc1 [Compound 38a, (2E,4E)-5-(4-Nitrophenyl)-1-(pyridine-3-yl)penta-2,4-dien-1-one]		Neither of these two extended conjugated compounds showed significant inhibition				
O=C(/C=C/c1ccc([N+](=O)[O-])cc1)c1cn(Cc2cc(C(F)(F)F)cc(C(F)(F)F)c2)nn1 [Compound 4j, (E)-1-(1-(3,5-bis(trifluoromethyl)benzyl)-1H-1,2,3-triazol-4-yl)-3-(4-nitrophenyl)prop-2-en-1-one]		activity was lost				IC50 (Table 6, Huisgen [3+2] cycloaddition products, read-out: IC50 (μM), class symbol): > 50 µM; IC50 (Table 6, value in brackets, read-out: IC50): > 100 µM

Source: patent US9162991B2 (University of Ottawa, priority 2007, dated 2015)
